Measurements from patent US9463192B2, “Trk-inhibiting compound” (ONO PHARMACEUTICAL CO., LTD., priority 2013, dated 2016).
Read-outs that look alike come from different tables or passages of the source.

What was measured:
[1] = test system: sodium monoiodoacetate-induced model rats; assay: Analgesic effect on sodium monoiodoacetate-induced model rats; assay type: in vivo, rat
[2] = test system: NGF-induced vascular hyper permeability; assay: Inhibition of rat NGF-induced vascular hyper permeability; assay type: in vivo; settings: po, 1 mg/kg orally, read-out: Inhibition rate of vascular hyper permeability (%) (time after administration (h))
Experimental: TrkA-inhibiting activity of the present compound was evaluted in vivo. The present compound dissolved in a medium was orally administered (adminstered volume: 5 mL/kg) to male CD(SD)IGS rats (7- to 9-week old, Charles River laboratories Japan, Inc.) shaved on the back. A medium was orally administered (adminstered volume: 5 mL/kg) to the control and normal groups. After 6, 12 or 14 hours of administration, 3 μg/mL of a NGF (Mouse 2.5s, Natural, Invitrogen) solution prepared in 0.1% BSA (Sigma-Aldrich)-containing saline was intracutaneously administered (dose; 50 μL/site) at 3 sites on the back of animals under halothane anesthesia. For the normal group, 0.1% BSA-containing saline was intracutaneously administered (dose; […]) at 3 sites on the back. Immediately after intracutaneous administration, 1% Evans Blue (Tokyo Chemical Industriy Co., Ltd.) was administered intravenously from tail (adminstered volume: 3 mL/kg). After 10 minutes of administration, the animals were sacrificed by bleeding due to incision of the abdominal aorta. The sites of intracutaneous administration on the back (3 sites) were excised and the skin samples were respectively transferred to the wells in a 48-well plate (Asahi Glass Co., Ltd.). Formamide (0.8 mL/well) was added to the plate and the plate was sealed and incubated overnight at 60° C. The formamide extraction solution (200 μL) was transferred to a 96-well plate and the absorbance (wavelength: 620 nm) of Evans Blue extracted in formamide was measured on an absorbance microplate reader (SpectraMAX 190, Molecular Devices Japan, K.K.). Standard samples of Evans Blue dissolved in formamide (0, 0.78, 1.56, 3.13, 6.25, 12.5, 25 and 50 µg/mL) were measured at the same time for the absorance (wavelength: 620 nm) to generate a calibration curve. Based on the calibration curve and the absorbances of samples, the concentrations of Evans Blue in the sample was calculated. The concentrations of Evans Blue for three skin samples collected from one aminal were averaged to obtain the vale for the animal. The rate of inhibition for rat NGF-induced vascular hyper permeability of the present compound was calculated according to the following Equation: Inhibition rate (%)={1−(AX−AN)/(AC−AN)}×100 [Eq. 3]
wherein AX: the concentration of Evans Blue of the test compound (an average value of 3 samples from one animal);
AN: the concentration of Evans Blue of the normal group (an average value of 3 samples from one animal);
AC: the concentration of Evans Blue of the control group (an average value of 3 samples from one animal).

[3] = target: human TrkA (Homo sapiens (Human), UniProt P04629); assay: Measurement of TrkA kinase-inhibiting activity using human TrkA-expressing cells; assay type: cell-based; settings: CHO-K1 cells expressing human TrkA and NFAT-bla; NGF 50 ng/ml; TR-FRET reporter
Experimental: TrkA kinase-inhibiting activity in cell systems was measured using CHO-K1 cells exressing human TrkA and NFAT-bla (CellSenser™ TrkA-NFAT-bla CHO-K1 cells, Invitrogen).
On the day before the assay, CellSenser™ TrkA-NFAT-bla CHO-K1 cells were suspended in an assay medium (Opti-MEM1 Reduced Serum Medium (Invitrogen) containing 0.5% dialysed fetal bovine serum (Invitrogen), 0.1 mM nonessential amino acids (Invitrogen), 1 mM sodium pyruvate (Invitrogen) and antibiotics (100 U/mL penicillin and 100 µg/mL streptomycin (Invitrogen))) and plated at a density of 2.4×10^4 cells/40 μL/well in a 96-well clear bottom plate (Corning, Catalogue No.: 3882). In some wells were added only the assay medium at 40 μL/well (Cell-free). On the day of the assay, 10 mM of the present compound (DMSO solution) was distributed in a 96-well plate (Costar, Catalogue No.: 3363) and serially diluted with DMSO with the geometrical ratio of 3. The serial dilutions were diluted with the assay medium to 100-fold to prepare a solution of the present compound with a 10-fold concentration (DMSO concentration: 1%). To the plate where cells were plated was added the present compound at 5 µL/well and the plate was incubated in a CO2 incubator with 5% CO2, 95% Air at 37° C. for 30 minutes. For a control and a blank, the assay medium containing 1% DMSO was added at 5 µL/well in place of the solution of the present compound. Subsequently the assay medium containing NGF (Mouse 2.5s, Natural, Invitrogen) was added to the plate at 5 µL/well (final concentration of NGF: 50 ng/ml) and the plate was incubated in a CO2 incubator with 5% CO2, 95% Air at 37° C. for 5 hours. For the blank group, the assay medium was added in place of NGF at 5 µL/well. A reporter assay detection reagent ([…]) was added to the plate which was then incubated in the dark at room temperature for 120 minutes. The reporter assay detection reagent was prepared from LiveBLAzer™-FRET B/G Loading Kit (Invitrogen). On the Analyst GT (Molecular Devices Japan, K.K.) the wells were irradiated with excitation light at 405 nm and the fluorescence intensities at 460 nm and 530 nm were measured. The time resolved fluorescence resonance energy transfer (TR-FRET) ratio of each well was calculated according to the following Equation 1: TR-FRET ratio=(A460x−A460F)/(A530x−A530F) [Eq. 1]
A460x: the fluorescence intensity at 460 nm of the present compound, control or blank;
A460F: the fluorescence intensity at 460 nm of the Cell-free;
A530x: the fluorescence intensity at 530 nm of the present compound, control or blank; and
A530x: the fluorescence intensity at 530 nm of the Cell-free.
The TR-FRET inhibition rate (%) of the present compound was calculated according to the following Equation 2: Inhibition rate (%)={1−(AX−AB)/(AC−AB)}×100 [Eq. 2]
wherein AX: the TR-FRET ratio when the present compound is added;
AB: the TR-FRET of the blank; and
AC: the TR-FRET of the control.
The IC50 value by the present compound was calculated from the inhibition curve based on the inhibition rate of the present compound at respective concentrations.

Chain of human TrkA (P04629 33-796): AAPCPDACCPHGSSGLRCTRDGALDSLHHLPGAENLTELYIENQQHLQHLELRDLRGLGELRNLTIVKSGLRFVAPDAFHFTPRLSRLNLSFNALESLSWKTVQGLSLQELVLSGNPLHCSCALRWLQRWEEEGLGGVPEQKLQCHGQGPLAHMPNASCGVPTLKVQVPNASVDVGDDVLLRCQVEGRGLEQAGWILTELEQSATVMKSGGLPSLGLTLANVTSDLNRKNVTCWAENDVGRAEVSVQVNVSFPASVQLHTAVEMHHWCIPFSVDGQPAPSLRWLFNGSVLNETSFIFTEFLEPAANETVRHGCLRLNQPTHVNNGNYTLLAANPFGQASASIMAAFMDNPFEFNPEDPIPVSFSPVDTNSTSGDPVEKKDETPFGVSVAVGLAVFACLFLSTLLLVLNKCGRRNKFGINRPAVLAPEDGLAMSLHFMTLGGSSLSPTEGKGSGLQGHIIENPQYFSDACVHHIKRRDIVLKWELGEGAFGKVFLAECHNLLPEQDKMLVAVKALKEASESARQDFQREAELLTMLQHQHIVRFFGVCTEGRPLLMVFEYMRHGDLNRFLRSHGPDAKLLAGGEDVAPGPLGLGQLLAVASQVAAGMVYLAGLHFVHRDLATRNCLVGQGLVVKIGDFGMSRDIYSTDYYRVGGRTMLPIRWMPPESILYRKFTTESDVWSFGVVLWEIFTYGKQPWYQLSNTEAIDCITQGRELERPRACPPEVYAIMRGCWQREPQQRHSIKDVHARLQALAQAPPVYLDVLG

Row | Structure (SMILES) | inhibition in vivo at 3 mg/kg ([1]; Rattus norvegicus, sc, 1 h, read-out: Percent improvement (%)) [%] | inhibition in vivo at 1 mg/kg ([2]; 14 h after administration) [%] | IC50 [3] [µM] | inhibition in vivo at 1 mg/kg ([2]; 12 h after administration) [%] | Percent improvement (%) ([1]; MIA-induced model rats, day 24, tramadol 10 mg/kg subcutaneously 1 hour before measurement)
1 | CN1CC[C@]23c4c5ccc(O)c4O[C@H]2[C@@H](O)C=C[C@H]3[C@H]1C5 [Morphine] | 54 |  |  |  | 
2 | CN(C)c1ccn2ncc(-c3ccc(Oc4ncc(NC(=O)Nc5cc(C(F)(F)F)ccc5-c5ccnn5C)cn4)cc3)c2n1 [Example 21-51, 1-(2-{4-[5-(dimethylamino)pyrazolo[1,5-a]pyrimidin-3-yl]phenoxy}-5-pyrimidinyl)-3-[2-(1-methyl-1H-pyrazol-5-yl)-5-(trifluoromethyl)phenyl]urea] |  | 95 | 0.001 |  | 
3 | Nc1ncc(F)cc1-c1ccc(Oc2ncc(NC(=O)Nc3cc(C(F)(F)F)ccc3-c3ccccc3)cn2)cc1 [Example 15-58, 1-{2-[4-(2-amino-5-fluoro-3-pyridinyl)phenoxy]-5-pyrimidinyl}-3-[4-(trifluoromethyl)-2-biphenylyl]urea] |  | 100 | 0.002 |  | 
4 | Nc1ncc(F)cc1-c1ccc(Oc2ncc(NC(=O)Nc3cc(C(F)(F)F)ccc3-c3cccnc3)cn2)cc1 [Example 14-6, 1-(2-(4-(2-amino-5-fluoropyridin-3-yl)phenoxy)pyrimidin-5-yl)-3-(2-(pyridin-3-yl)-5-(trifluoromethyl)phenyl)urea] |  |  | 0.001 | 78 | 
5 | Nc1ncc(Cl)cc1-c1ccc(Oc2ncc(NC(=O)Nc3cc(C(F)(F)F)ccc3-n3cccn3)cn2)cc1 [Example 7, 1-(2-(1H-pyrazol-1-yl)-5-(trifluoromethyl)phenyl)-3-(2-(4-(2-amino-5-chloropyridin-3-yl)phenoxy)pyrimidin-5-yl)urea] |  | 97 | 0.001 |  | 
6 | CS(=O)(=O)c1ccc(C(F)(F)F)cc1NC(=O)Nc1cnc(Oc2ccc(-c3cc(Cl)cnc3N)cc2)nc1 [Example 15-104, 1-{2-[4-(2-amino-5-chloro-3-pyridinyl)phenoxy]-5-pyrimidinyl}-3-[2-(methylsulfonyl)-5-(trifluoromethyl)phenyl]urea] |  | 100 | 0.0005 |  | 
7 | Nc1ncc(Cl)cc1-c1ccc(Oc2ccc(NC(=O)Nc3cc(C(F)(F)F)ccc3-n3ccnn3)cn2)cc1 [Example 9-2] |  | 100 | 0.001 |  | 
8 | Nc1ncc(Cl)cc1-c1ccc(Oc2ccc(NC(=O)Nc3cc(C(F)(F)F)ccc3-n3cccn3)cn2)cc1 [Example 9-1] |  | 86 | 0.003 |  | 
9 | Nc1ncc(Cl)cc1-c1ccc(Oc2ncc(NC(=O)Nc3cc(C(F)(F)F)ccc3-c3ccccc3)cn2)cc1 [Example 15-55, 1-{2-[4-(2-amino-5-chloro-3-pyridinyl)phenoxy]-5-pyrimidinyl}-3-[4-(trifluoromethyl)-2-biphenylyl]urea] |  | 94 | 0.004 |  | 
10 | Nc1ncc(F)cc1-c1ccc(Oc2ncc(NC(=O)Nc3cc(C(F)(F)F)ccc3-n3ccnn3)cn2)cc1 [Example 14-5, 1-(2-(1H-1,2,3-triazol-1-yl)-5-(trifluoromethyl)phenyl)-3-(2-(4-(2-amino-5-fluoropyridin-3-yl)phenoxy)pyrimidin-5-yl)urea] |  | 93 | 0.001 |  | 
11 | COc1cccc(C2(O)CCCCC2CN(C)C)c1 (stereo not drawn) [Tramadol] |  |  |  |  | 43
12 | Nc1ncc(Cl)cc1-c1ccc(Oc2ncc(NC(=O)Nc3ccc(C(F)(F)F)cc3F)cn2)cc1 [Example 15-5, 1-(2-(4-(2-amino-5-chloropyridin-3-yl)phenoxy)pyrimidin-5-yl)-3-(2-fluoro-4-(trifluoromethyl)phenyl)urea] |  | 92 | 0.003 |  | 
13 | Nc1ncc(C(F)(F)F)cc1-c1ccc(Oc2ncc(NC(=O)Nc3cc(C(F)(F)F)ccc3-n3cc(Cl)cn3)cn2)cc1 [Example 15-87, 1-(2-{4-[2-amino-5-(trifluoromethyl)-3-pyridinyl]phenoxy}-5-pyrimidinyl)-3-[2-(4-chloro-1H-pyrazol-1-yl)-5-(trifluoromethyl)phenyl]urea] |  | 86 | 0.001 |  | 
